Measurements taken from patent EP1068184B1, “N-ARYLOXYETHYLAMINE DERIVATIVES FOR THE TREATMENT OF DEPRESSION” (Wyeth, priority 1998, dated 1999).
pKi: −log10 of the molar value. Like-named read-outs stand apart in the source and are kept apart here.

Experiments:
[1] = molecular target: T1, human 5-HT1A receptor subtype (Homo sapiens, UniProt P08908); assay: 5-HT1A receptor binding assay with [3H]8-OH-DPAT on membranes of 5-HT1A.CHO cells; settings: for 5-HT1A (% @1000nM) / 5-HT1A (% @10nM): given instead of a Ki; for pKi: [3H]8-OH-DPAT 1.5 nM, CHO cell membranes
T1 construct: expressed in transfected cells
T1 sequence (P08908 1-422): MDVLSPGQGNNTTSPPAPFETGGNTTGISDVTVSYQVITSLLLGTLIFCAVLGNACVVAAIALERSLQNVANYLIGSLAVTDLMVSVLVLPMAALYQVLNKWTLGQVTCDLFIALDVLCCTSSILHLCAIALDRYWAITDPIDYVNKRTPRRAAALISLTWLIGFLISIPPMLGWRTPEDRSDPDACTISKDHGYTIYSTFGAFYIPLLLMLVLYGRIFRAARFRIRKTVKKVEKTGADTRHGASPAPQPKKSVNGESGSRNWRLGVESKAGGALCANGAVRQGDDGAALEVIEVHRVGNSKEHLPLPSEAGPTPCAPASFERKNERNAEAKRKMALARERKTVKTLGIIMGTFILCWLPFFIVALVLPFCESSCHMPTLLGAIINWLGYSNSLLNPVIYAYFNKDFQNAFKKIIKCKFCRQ
Description: (§1) The PCR cloning of the human 5-HT1A receptor subtype from a human genomic library has been described previously Chanda et al., Mol. Pharmacol., 43:516 (1993). A stable Chinese hamster ovary cell line expressing the human 5-HT1A receptor subtype (5-HT1A.CHO cells) was employed throughout this study. Cells were maintained in DMEM supplemented with 10% foetal calf serum, non-essential amino acids and penicillin/ streptomycin.
Cells were grown to 95-100% confluency as a monolayer before membranes were harvested for binding studies. Cells were gently scraped from the culture plates, transferred to centrifuge tubes, and washed twice by centrifugation (2000 rpm for 10 min., 4°C) in buffer (50 mM Tris; pH 7.5). The resulting pellets were aliquoted and placed at -80°C. On the day of assay, the cells were thawed on ice, and resuspended in buffer. Studies were conducted using [^3H]8-OH-DPAT as the radioligand. The binding assay was performed in 96 well microtiter plates in a final total volume of 250 µL of buffer. Competition experiments were performed by using 7 concentrations of unlabelled drug and a final ligand concentration of 1.5 nM . Non-specific binding was determined in the presence of 10 µM 5HT. Saturation analysis was conducted by using [^3H]8-OH-DPAT at concentrations ranging from 0.3-30 nM. Following a 30 minute incubation at room temperature, the reaction was terminated by the addition of ice cold buffer and rapid filtration using a M-96 Brandel Cell Harvester (Gaithersburg, MD) through a GF/B filter presoaked for 30 minutes in 0.5% polyethyleneimine.

serotonin transporter = molecular target: T2, serotonin transporter (Rattus norvegicus, UniProt P31652); assay: serotonin transporter affinity, 3H-paroxetine binding to frontal cortical membranes; parameters: species or system male Sprague-Dawley rats
T2 construct: frontal cortical membranes prepared from male Sprague-Dawley rats; from tissue; host or cells: rat frontal cortex membranes
Description: Briefly, frontal cortical membranes prepared from male Sprague-Dawley rats were incubated with ^3H-paroxetine (0.1 nM) for 60 min at 25°C. All tubes also contained either vehicle, test compound (one to eight concentrations), or a saturating concentration of fluoxetine (10 µM) to define specific binding. All reactions are terminated by the addition of ice cold Tris buffer followed by rapid filtration using a Tom Tech filtration device to separate bound from free ^3H-paroxetine.

5-HT1A cloned receptor = molecular target: T3, 5-HT1A cloned receptor (Homo sapiens, UniProt P08908); assay: [35S]-GTPγS binding assay on 5-HT1A cloned receptor membrane fragments; type: biochemical; settings: maximum agonist response defined by excess 8-OH-DPAT
T3 construct: expressed in transfected cells
T3 sequence (P08908 1-422): T1 sequence (P08908 1-422)
Description: The [^35S]-GTPγS binding assay was similar to that used by Lazareno and Birdsall, Br. J. Pharmacol. 109:1120 (1993). Briefly, 5-HT1A cloned receptor membrane fragments (as used for 5-HT1A receptor binding assays) were stored at -70 °C until needed. When needed, membranes were rapidly thawed, centrifuged at 40,000 x g for 10 minutes and resuspended at 4 °C for 10 minutes in assay buffer (25 mM HEPES, 3 mM MgCl2, 100 mM NaCI, 1 mM EDTA, 10 uM GDP, […] DTT, pH 8.0). These membranes were then incubated for 30 min at 30 °C with [^35S]GTPgS (1 nM) in the presence of vehicle, test compound (one to eight concentrations), or excess 8-OH-DPAT to define maximum agonist response. All reactions are terminated by the addition of ice cold Tris buffer followed by rapid filtration using a Tom Tech® filtration device to separate bound from free [^35S]GTPgS. Agonists produce an increase in the amount of [^35S]GTPgS bound whereas antagonists produce no increase in binding. Bound radioactivity was counted and analyzed as above.

[2] = molecular target: T1, human 5-HT1A receptor subtype; assay: cAMP formation in forskolin-treated cells (cAMP SPA assay); type: cell-based; settings: forskolin 1 uM, 10 min at 37°C
Description: as §1
The following assays were performed by incubating the cells with DMEM containing 25 mM HEPES, 5 mM theophylline and 10 µM pargyline for a period of 20 minutes at 37°C. Functional activity was assessed by treating the cells with forskolin (1 uM final concentration) followed immediately by test compound (6 concentrations) for an additional 10 min at 37°C. In separate experiments, 6 concentrations of antagonist were preincubated for 20 min prior to the addition of 10 nM 8-OH-DPAT and forskolin. The reaction was terminated by removal of the media and addition of 0.5 ml ice cold assay buffer. Plates were stored at -20°C prior to assessment of cAMP formation by a cAMP SPA assay (Amersham).

[3] = 3H-paroxetine 0.1 nM, rat frontal cortical membranes, read-out: ST (Ki)

T2 sequence (P31652 whole entry): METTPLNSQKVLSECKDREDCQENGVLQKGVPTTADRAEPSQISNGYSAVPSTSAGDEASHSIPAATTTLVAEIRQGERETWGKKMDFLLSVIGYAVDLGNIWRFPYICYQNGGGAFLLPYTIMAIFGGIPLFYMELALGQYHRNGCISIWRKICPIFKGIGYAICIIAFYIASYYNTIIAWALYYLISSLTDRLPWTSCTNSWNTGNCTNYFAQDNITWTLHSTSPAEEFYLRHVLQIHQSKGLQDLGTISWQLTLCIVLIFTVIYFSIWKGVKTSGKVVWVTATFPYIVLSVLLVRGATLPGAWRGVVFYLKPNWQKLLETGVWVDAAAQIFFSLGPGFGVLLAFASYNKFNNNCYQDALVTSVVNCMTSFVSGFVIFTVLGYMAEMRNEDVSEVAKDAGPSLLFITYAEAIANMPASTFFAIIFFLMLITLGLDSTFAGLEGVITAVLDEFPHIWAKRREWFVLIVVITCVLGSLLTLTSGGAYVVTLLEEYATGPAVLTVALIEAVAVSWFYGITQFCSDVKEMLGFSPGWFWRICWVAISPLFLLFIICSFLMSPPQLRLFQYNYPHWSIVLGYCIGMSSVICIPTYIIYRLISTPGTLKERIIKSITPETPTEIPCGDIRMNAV

| Structure (SMILES) | pKi (serotonin transporter; [3]) | pKi [1] | Emax (5-HT1A cloned receptor) [%] | also measured |
| --- | --- | --- | --- | --- |
| Cn1cc([C@H]2CC[C@@H](NCCOc3cc(F)cc4c3OCCC4)CC2)c2cc(C#N)ccc21 [Example 5c, 3-{(1,4-cis)-4-[2-(6-Fluoro-chroman-8-yloxy)-ethylamino]-cyclohexyl}-1-methyl-1H-indole-5-carbonitrile] | 9.28 |  |  | 5-HT1A (% @1000nM) [1]: 47%@1000nM |
| COc1ccc(F)cc1OCCN[C@H]1CC[C@@H](c2c[nH]c3cc(F)ccc32)CC1 [Example 2a, [(1,4-cis)-4-(6-Fluoro-1H-indol-3-yl)-cyclohexyl]-[2-(5-fluoro-2-methoxy-phenoxy)-ethyl]-amine] | 8.92 | 6.00 |  |  |
| COc1cc(F)c(F)cc1OCCN[C@H]1CC[C@@H](c2c[nH]c3ccc(F)cc32)CC1 [Example 11a, (1,4-cis)-[2-(4,5-Difluoro-2-methoxy-phenoxy)-ethyl]-[4-(5-fluoro-1H-indol-3-yl)-cyclohexyl]-amine] |  |  | 0 | 5-HT1A (% @10nM) [1]: 0%@10nM; pKi (serotonin transporter): 8.77 |
| COc1ccccc1OCCN[C@H]1CC[C@H](c2c[nH]c3ccc(F)cc32)CC1 [Example 1b, [(trans)-4-(5-Fluoro-1H-indol-3-yl)-cyclohexyl]-[2-(2-methoxy-phenoxy)-ethyl]-amine] |  | 7.65 |  |  |
| Fc1ccc2c(c1)[nH]cc2[C@H]1CC[C@@H](NCCOc2cccc3c2OCCO3)CC1 [Example 4c] | 8.20 | 6.45 |  |  |
| Fc1ccc2[nH]cc([C@H]3CC[C@H](NCCOc4cc(Cl)cc5[nH]cnc45)CC3)c2c1 [Example 8a, [2-(6-Chloro-1H-benzoimidazol-4-yloxy)-ethyl]-[(1,4-trans)-4-(5-fluoro-1H-indol-3-yl)-cyclohexyl]-amine] | 8.80 | 7.90 | 0 |  |
| COc1cc(F)ccc1OCCN[C@H]1CC[C@@H](c2c[nH]c3ccc(F)cc32)CC1 [Example 9a, [(1,4-cis)-4-(5-Fluoro-1H-indol-3-yl)-cyclohexyl]-[2-(4-fluoro-2-methoxy-phenoxy)-ethyl]-amine] | 8.75 |  | 45 | 5-HT1A (% @10nM) [1]: 16%@10nM |
| Cc1nc2c(OCCN[C@H]3CC[C@H](c4c[nH]c5ccc(F)cc54)CC3)cc(Cl)cc2[nH]1 [Example 8b, [2-(6-Chloro-2-methyl-1H-benzoimidazol-4-yloxy)-ethyl]-[(1,4-trans)-4-(5-fluoro-1H-indol-3-yl)-cyclohexyl]-amine] | 9.28 | 7.72 |  | Emax [2]: 0% |
| Fc1ccc2[nH]cc([C@H]3CC[C@@H](NCCOc4cccc5[nH]ccc45)CC3)c2c1 [Example 3a] | 7.59 | 6.83 |  |  |
| Fc1cc2c(c(OCCN[C@H]3CC[C@@H](c4c[nH]c5ccc(F)cc54)CC3)c1)OCCC2 [Example 5a, [2-(6-Fluoro-chroman-8-yloxy)-ethyl]-[(1,4-cis)-4-(5-fluoro-1H -indol-3-yl)-cyclohexyl]-amine] | 7.89 |  |  | 5-HT1A (% @1000nM) [1]: 49%@1000nM |
| Fc1cc(OCCN[C@H]2CC[C@@H](c3c[nH]c4ccc(F)cc43)CC2)c2occc2c1 [Example 7a, [2-(5-Fluoro-benzofuran-7-yloxy)-ethyl]-[(1,4-cis)-4-(5-fluoro-1H -indol-3-yl)-cyclohexyl]-amine] |  | 6.84 |  |  |
| Fc1cc(OCCN[C@H]2CC[C@H](c3c[nH]c4ccc(F)cc43)CC2)c2occc2c1 [Example 7b, [2-(5-Fluoro-benzofuran-7-yloxy)-ethyl]-[(1,4-trans)-4-(5-fluoro-1H -indol-3-yl)-cyclohexyl]-amine] |  | 7.73 |  |  |
| COc1cc(S(C)(=O)=O)c(F)cc1OCCN[C@H]1CC[C@H](c2c[nH]c3ccc(F)cc32)CC1 [Example 12, [(1,4-trans)-4-(5-Fluoro-1H-indol-3-yl)-cyclohexyl]-[2-(5-fluoro-4-methanesulfonyl-2-methoxy-phenoxy)-ethyl]-amine] |  |  | 0 | 5-HT1A (% @10nM) [1]: 0%@10nM; pKi (serotonin transporter): 9.33 |
| Fc1ccc2[nH]cc([C@H]3CC[C@@H](NCCOc4cccc5c4OCCO5)CC3)c2c1 [Example 4a] | 7.74 | 6.31 |  |  |
| COc1cc(F)ccc1OCCN[C@H]1CC[C@H](c2c[nH]c3ccc(F)cc32)CC1 [Example 9b, [(1,4-trans)-4-(5-Fluoro-1H-indol-3-yl)-cyclohexyl]-[2-(4-fluoro-2-methoxy-phenoxy)-ethyl]-amine] | 8.48 | 7.11 | 39.5 |  |
| OC1(CNCCOc2cccc3[nH]ccc23)CCC(c2c[nH]c3ccc(F)cc23)CC1 (stereo not drawn) [Example 13, (1,4)-4-(5-Fluoro-1H-indol-3-yl)-1-([2-(1H-indol-4-yloxy)-ethylamino]-methyl}-cyclohexanol] |  |  | 85 |  |
| N#Cc1ccc2[nH]cc([C@H]3CC[C@@H](NCCOc4cc(F)cc5c4OCCC5)CC3)c2c1 [Example 5e, 3-{(1,4-cis)-4-[2-(6-Fluoro-chroman-8-yloxy)-ethylamino]-cyclohexyl}-1H-indole-5-carbonitrile] | 8.56 | 6.41 |  |  |
| Cn1cc([C@H]2CC[C@H](NCCOc3cc(F)cc4c3OCCC4)CC2)c2cc(C#N)ccc21 [Example 5d, 3-{(1,4-cis)-4-[2-(6-Fluoro-chroman-8-yloxy)-ethylamino]-cyclohexyl}-1-methyl-1H-indole-5-carbonitrile] | 7.67 | 7.62 |  |  |
| COc1cc(F)c(F)cc1OCCN[C@H]1CC[C@H](c2c[nH]c3ccc(F)cc32)CC1 [Example 11b, (1,4-trans)-[2-(4,5-Difluoro-2-methoxy-phenoxy)-ethyl]-[4-(5-fluoro-1H-indol-3-yl)-cyclohexyl]-amine] |  | 7.60 | 0 | pKi (serotonin transporter): 9.15 |
| N#Cc1ccc2[nH]cc([C@H]3CC[C@H](NCCOc4cc(F)cc5c4OCC5)CC3)c2c1 [Example 6b] | 8.82 | 7.63 |  |  |
| COc1ccccc1OCCNCC1CCC(c2c[nH]c3ccc(C#N)cc23)CC1 (stereo not drawn) [Example 10b, 3-(4-{[2-(Methoxy-phenoxy)-ethylamino]-methyl}-cyclohexyl)-1H-indole-5-carbonitrile] | 8.82 |  |  | 5-HT1A (% @10nM) [1]: 7%@10nM |
| N#Cc1ccc2[nH]cc([C@H]3CC[C@@H](NCCOc4cc(F)cc5c4OCC5)CC3)c2c1 [Example 6a] | 8.97 |  |  | 5-HT1A (% @1000nM) [1]: 49%@1000nM |
| COc1ccccc1OCCN[C@H]1CC[C@@H](c2c[nH]c3ccc(F)cc32)CC1 [Example 1a, [(cis)-4-(5-Fluoro-1H-indol-3-yl)-cyclohexyl]-[2-(2-methoxy-phenoxy)-ethyl]-amine] |  | 6.51 |  |  |
| Fc1ccc2c(c1)[nH]cc2[C@H]1CC[C@H](NCCOc2cccc3c2OCCO3)CC1 [Example 4d] | 9.68 | 7.78 | 74.8 |  |
